Patent US10626092B2, “Polymorphic forms of 3-[(2-butyl-1-(2-diethylamino-ethyl)-1H-benzoimidazol-5-yl]-N-hydroxy-acrylamide and uses thereof” (MEI PHARMA, INC., priority 2016, dated 2020)
Where a name gives a salt, the structure may show the parent alone.

Experiments:
Assay type in all cases: physicochemical
[1] = Long-term slurry conversion experiments
Protocol: Approximately 30 mg of the specific form was dosed in a standard HPLC vial and aliquots of 100 μL of solvent until a suspension was formed. […] The solids were isolated from the mother liquor and analyzed by HT-XRPD after mild drying under ambient conditions (ambient) and after thorough drying under vacuum (vacuum). All the solids were exposed to accelerated ageing conditions (2 days at 40° C./70% RH) and re-analyzed by HT-XRPD.

[2] = Variable temperature XRPD; conditions: 25° C. to 143° C., cooling to 25° C., reheating to 155° C.
Protocol: To investigate the phase interconversions upon temperature exposure, a variable temperature XRPD analysis on 3-[2-butyl-1-(2-diethylamino-ethyl)-1H-benzoimidazol-5-yl]-N-hydroxy-acrylamide dihydrochloride 2.5 hydrate was performed. The experiment was run between 25° C. to 130° C. with cooling back to 25° C. at the end. […] After reaching a temperature of 130° C., the material was cooled back to 25° C.
A variable temperature XRPD experiment with 3-[2-butyl-1-(2-diethylamino-ethyl)-1H-benzoimidazol-5-yl]-N-hydroxy-acrylamide dihydrochloride monohydrate was conducted to investigate the solid form conversion that occurred upon heating. The experiment was run between 25° C. to 143° C. followed by cooling to 25° C., reheating to 155° C. and then cooling again to 25° C. (see FIG. 19).
For variable humidity and temperature experiments the ANSYCO HT chamber was used, installed within the D8 Advance system diffractometer (Bruker) designed with Brag-Brentano geometry and equipped with LynxEye solid state detector. The radiation used for collecting the data was CuKα1 (λ=1.54056 Å) monochromatized by germanium crystal. The material was placed on a fixed sample holder that was mounted inside the chamber.
VT-XRPD: The temperature variation rate was 10° C./min and the equilibration time, prior to starting the data collection at each temperature, was 8 min. The patterns were collected in the range 4-41°2θ, with a step of 0.01573°2θ and measuring time per step of 1 sec. The data collection time, per temperature, was 40 min.

[3] = Moisture sorption study (DVS analysis)
[4] = Moisture sorption study (DVS analysis); remark: listed apart in the source
Protocol: A moisture sorption study was performed to investigate the physical stability of 3-[2-butyl-1-(2-diethylamino-ethyl)-1H-benzoimidazol-5-yl]-N-hydroxy-acrylamide dihydrochloride 2.5 hydrate upon exposure to several relative humidity profiles. HT-XRPD analyses were performed on the solid material obtained after the DVS analyses. The analytical method is described herein.
Differences in hygroscopicity (moisture uptake) of the various forms of a solid material provided a measure of their relative stability at increasing relative humidity. Moisture sorption isotherms of small samples were obtained using a DVS-1 system from Surface Measurement Systems (London, UK); this instrument is suitable for use with as little as a few milligrams of sample, with an accuracy of 0.1 μg. Several humidity profile were applied as described in each individual experiment. Steps consisted of 10% RH. Weight equilibration per step was set with a minimum holding time of 1 hour (10% relative humidity step). At the end of the DVS experiments, the recovered solid material was measured by HT-XRPD.

[5] = Physical stability under accelerated aging conditions (40° C./70% RH), physical form re-determined by HT-XRPD
Protocol: Solids were analyzed for their physical stability under accelerated aging conditions (40° C./70% RH) for 48 hours. After the exposure, the physical form was determined again by HT-XRPD analysis. The physico-chemical characterization of the forms was done by TGMS analysis to determine the solvation state of the form and thermal events and by DSC analysis to confirm the thermal events observed in the SDTA signal of the TGA. (See Examples for details.)
Suspensions of 3-[2-butyl-1-(2-diethylamino-ethyl)-1H-benzoimidazol-5-yl]-N-hydroxy-acrylamide dihydrochloride monohydrate (Form 1) and 2.5 hydrate (Form 3) were prepared in 12 process relevant solvent systems. The suspensions were cycled between 5° C. and 50° C. followed by aging at 25° C. for 72 hours. […] Upon completion of the incubation time, the solids were collected, dried under ambient conditions and dried under deep vacuum before being analyzed by HT-XRPD. All the measured solids were exposed to accelerated ageing conditions (2 days at 40° C./70% RH) followed by re-analysis by HT-XRPD.
Long-term slurry conversion experiments were carried out by preparing suspensions of 3-[2-butyl-1-(2-diethylamino-ethyl)-1H-benzoimidazol-5-yl]-N-hydroxy-acrylamide dihydrochloride 2.5 hydrate (Form 3) and monohydrate (Form 1) in 12 different solvents and solvent mixtures. Approximately 30 mg of the specific form was dosed in a standard HPLC vial and aliquots of 100 μL of solvent until a suspension was formed. The suspensions were stirred for 2 weeks at room temperature and for 1 week at 50° C. The solids were isolated from the mother liquor and analyzed by HT-XRPD after mild drying under ambient conditions (ambient) and after thorough drying under vacuum (vacuum). All the solids were exposed to accelerated ageing conditions (2 days at 40° C./70% RH) and re-analyzed by HT-XRPD.
The competitive slurry experiments were performed in ethanol/water mixtures and methanol/water mixtures within a water activity range of 0-0.2. Approximately 50 mg of each pracinostat dihydrochloride solid form 2.5 hydrate and monohydrate were solid dosed in 1.8 mL HPLC vials. Aliquots of 100 μL of the different water mixtures were added until about half of the amount of solid was in solution. Subsequently, the vials were stirred for one week at 5° C., 21° C. and 50° C. Upon completion of the equilibration time, the solids were separated from the liquids by centrifugation. The solids were dried under ambient conditions (ambient) and dried under vacuum (vacuum) before HT-XRPD analysis. All solid samples were exposed to accelerated gaining conditions (40° C. and 70% RH) for two days (AAC). The water content in the liquid phase was determined Karl Fischer analysis.

[6] = cycles 45-95-0-45% RH, two cycles
[7] = second DVS: 45% to 95% RH, held at 95% RH for 10 hours

solid form after slurry ([1]; no water present in the solvent system): conversion to the anhydrous Form 9
solid form conversion upon heating [2]: No solid form conversions were observed
relative humidity level above which conversion to the 2.5 hydrate (Form 3) occurs ([3]; DVS 45-95% RH): above 85%
hygroscopicity ([3]; DVS, dihydrochloride monohydrate): hygroscopic
water uptake between 85-95% RH [4, 6]: 17%
weight loss during desorption between 15-0% RH [4, 6]: 10%
weight loss during desorption between 95-75% RH [4, 6]: 7%
water uptake at 75% RH ([4]; first cycle of 45-95-0-45% RH): 18%
water uptake between 85-95% RH [4, 7]: 18%
weight loss after aging at 95% RH for 2 hours [4, 7]: about 12%
solid form after accelerated aging conditions ([5]; 2 days at 40° C./70% RH): converted to the 2.5 hydrate Form 3
Stability ([5]; physical stability under accelerated aging conditions (40° C./70% RH) for 48 hours, dihydrochloride monohydrate): Unstable
Structure (SMILES): CCCCc1nc2cc(/C=C/C(=O)NO)ccc2n1CCN(CC)CC [Form 1, 3-[2-butyl-1-(2-diethylamino-ethyl)-1H-benzoimidazol-5-yl]-N-hydroxy-acrylamide dihydrochloride monohydrate]
solid form after slurry ([1]; all ethanol/water and methanol/water mixtures at ambient conditions): transformed into the 2.5 hydrate (Form 3)
solid form recovered after DVS ([3]; two sorption-desorption cycles 45-95-0-95-0-45% RH, HT-XRPD, dihydrochloride monohydrate): conversion mainly to the 2.5 hydrate (Form 3)
solid form recovered after DVS ([4]; 45-95-0% RH with aging for 5 hours at 0% RH, HT-XRPD): 2.5 hydrate (Form 3) with a small contamination of the hemihydrate (Form 10)
